ChEMBL document CHEMBL1201862, “PubChem BioAssay data set” (2004)
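How tested: cells in 96-well plates exposed to compound for 48 hours at five concentrations. GI50 = concentration required for 50% inhibition of growth.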 Activity calls are given as the source filed them. Rule as the data show it: active = GI50 up to about 1.1 µM and inactive = higher.

What was measured:
Experiment in all cases: inhibition of tumour cell growth, NCI panel, 48 h
RXF 393 = system: RXF 393
UO-31 = system: UO-31
OVCAR-3 = system: OVCAR-3
RPMI-8226 = system: RPMI-8226
BT-549 = system: BT-549
MDA-MB-435 = system: MDA-MB-435
SK-MEL-2 = system: SK-MEL-2
MDA-MB-231 = system: MDA-MB-231
U-251 = system: U-251
SK-MEL-28 = system: SK-MEL-28
ACHN = system: ACHN
Malme-3M = system: Malme-3M
UACC-257 = system: UACC-257
K562 = system: K562
EKVX = system: EKVX
PC-3 = system: PC-3
A498 = system: A498
HOP-62 = system: HOP-62
HCT-116 = system: HCT-116
OVCAR-8 = system: OVCAR-8

Measured: GI50

COC(=O)c1ccc2cc(O)ccc2c1
inactive: RXF 393 > 100 µM | UO-31 32.4 µM | OVCAR-3 > 100 µM | RPMI-8226 53.5 µM | BT-549 79.6 µM | MDA-MB-435 96.6 µM | SK-MEL-2 > 100 µM | MDA-MB-231 > 100 µM | U-251 87.7 µM | SK-MEL-28 > 100 µM | ACHN 76.6 µM | Malme-3M > 100 µM | UACC-257 > 100 µM | K562 41.5 µM | EKVX 55.8 µM | PC-3 > 100 µM | A498 38.5 µM | HOP-62 > 100 µM | HCT-116 68.7 µM | OVCAR-8 53.2 µM

O=C(CCBr)N1CCN(C(=O)CCBr)CC1 [PIPOBROMAN]
inactive: RXF 393 68.2 µM | UO-31 120 µM | OVCAR-3 96.6 µM | RPMI-8226 98.4 µM | BT-549 61.8 µM | MDA-MB-435 105 µM | SK-MEL-2 107 µM | MDA-MB-231 113 µM | U-251 55 µM | SK-MEL-28 99.8 µM | ACHN 29 µM | Malme-3M 101 µM | UACC-257 91 µM | K562 131 µM | EKVX 85.7 µM | PC-3 113 µM | A498 80.7 µM | HOP-62 60.3 µM | HCT-116 71.3 µM | OVCAR-8 86.3 µM

CN(C)CC(O)c1ccc(Cl)c2ccccc12 (centres undefined)
inactive: RXF 393 22.1 µM | UO-31 19.9 µM | OVCAR-3 > 91 µM | RPMI-8226 3.08 µM | BT-549 57.1 µM | MDA-MB-435 21.6 µM | SK-MEL-2 19.3 µM | MDA-MB-231 27.5 µM | U-251 37.1 µM | SK-MEL-28 19.6 µM | ACHN 45 µM | Malme-3M 32.3 µM | UACC-257 20.9 µM | K562 1.15 µM | EKVX > 100 µM | PC-3 36.9 µM | A498 22.4 µM | HOP-62 50.8 µM | HCT-116 50 µM | OVCAR-8 > 90.4 µM

CCC1=C(CC2NCCc3cc(OC)c(OC)cc32)CC2c3ccccc3CCN2C1 (centres undefined)
inactive: RXF 393 19.8 µM | UO-31 15 µM | OVCAR-3 33.4 µM | RPMI-8226 13.8 µM | BT-549 49.4 µM | MDA-MB-435 13.1 µM | SK-MEL-2 15.8 µM | MDA-MB-231 16.8 µM | U-251 13.7 µM | SK-MEL-28 13.9 µM | ACHN 31.5 µM | Malme-3M 14.6 µM | UACC-257 18.1 µM | K562 10.1 µM | EKVX 22.2 µM | PC-3 16.2 µM | A498 13.2 µM | HOP-62 21.7 µM | HCT-116 8.55 µM | OVCAR-8 37.5 µM

CCCCCCCCCCc1c2nc(c(CCCCCCCCCC)c3ccc([nH]3)c(CCCCCCCCCC)c3nc(c(CCCCCCCCCC)c4ccc1[nH]4)C=C3)C=C2
inactive: RXF 393 > 100 µM | UO-31 > 100 µM | OVCAR-3 > 100 µM | RPMI-8226 > 100 µM | BT-549 > 100 µM | MDA-MB-435 > 100 µM | SK-MEL-2 > 100 µM | MDA-MB-231 > 100 µM | U-251 > 100 µM | SK-MEL-28 > 100 µM | ACHN > 100 µM | Malme-3M > 100 µM | UACC-257 > 100 µM | K562 > 100 µM | EKVX > 100 µM | PC-3 > 100 µM | A498 > 100 µM | HOP-62 > 100 µM | HCT-116 > 100 µM | OVCAR-8 > 100 µM

CC(=O)Oc1ccc(/C=C/C(=O)O[C@@H](C)[C@H](C)OC(=O)/C=C/c2ccc(OC(C)=O)c(OC(C)=O)c2)cc1OC(C)=O
inactive: RXF 393 13.6 µM | UO-31 5.94 µM | OVCAR-3 5.15 µM | RPMI-8226 4.75 µM | BT-549 10 µM | MDA-MB-435 12.2 µM | SK-MEL-2 19.7 µM | MDA-MB-231 39.9 µM | U-251 17.1 µM | SK-MEL-28 15.3 µM | ACHN 11.4 µM | Malme-3M 22.9 µM | UACC-257 18.7 µM | K562 3.99 µM | EKVX 22.9 µM | PC-3 23.1 µM | A498 24.7 µM | HOP-62 7.45 µM | HCT-116 7.5 µM | OVCAR-8 11.5 µM

OCCCNCC(O)c1ccc(OCc2ccccc2)c(OCc2ccccc2)c1 (centres undefined)
inactive: RXF 393 23.4 µM | UO-31 15 µM | OVCAR-3 15.9 µM | RPMI-8226 8.47 µM | BT-549 15.8 µM | MDA-MB-435 7.8 µM | SK-MEL-2 8.02 µM | MDA-MB-231 14 µM | U-251 9.75 µM | SK-MEL-28 8.95 µM | ACHN 10.4 µM | Malme-3M 15.8 µM | UACC-257 11.2 µM | K562 8.45 µM | EKVX 15 µM | PC-3 10.9 µM | A498 11.9 µM | HOP-62 14.3 µM | HCT-116 8.47 µM | OVCAR-8 11.4 µM

Cc1cc(-c2nc3cc(F)ccc3s2)ccc1N
inactive: RXF 393 17.2 µM | UO-31 4.06 µM | OVCAR-3 28.7 µM | RPMI-8226 > 31.3 µM | BT-549 > 48 µM | MDA-MB-435 > 55.6 µM | SK-MEL-2 34.6 µM | MDA-MB-231 8.11 µM | U-251 24.2 µM | SK-MEL-28 > 100 µM | ACHN 22.4 µM | Malme-3M 40.8 µM | UACC-257 29.9 µM | K562 > 49.2 µM | EKVX 11.2 µM | PC-3 17 µM | A498 2 µM | HOP-62 15.2 µM | HCT-116 21.1 µM | OVCAR-8 36.3 µM

COC(=O)/C=C1/OC(c2ccc(OC)cc2)=C(Cl)C1=O
inactive: RXF 393 10 µM | UO-31 21 µM | OVCAR-3 13.3 µM | RPMI-8226 3.95 µM | BT-549 13.3 µM | MDA-MB-435 15.6 µM | SK-MEL-2 17.2 µM | MDA-MB-231 12.3 µM | U-251 9.1 µM | SK-MEL-28 17.3 µM | ACHN 17.3 µM | Malme-3M 16.2 µM | UACC-257 21.6 µM | K562 2.73 µM | EKVX 19.1 µM | PC-3 15.2 µM | A498 22.5 µM | HOP-62 20.6 µM | HCT-116 13.5 µM | OVCAR-8 12.9 µM

CN(C)/N=N/c1ccc2[nH]c(=O)[nH]c2c1
inactive: RXF 393 > 100 µM | UO-31 > 100 µM | OVCAR-3 > 100 µM | RPMI-8226 > 100 µM | BT-549 > 100 µM | MDA-MB-435 > 100 µM | SK-MEL-2 > 100 µM | MDA-MB-231 > 100 µM | U-251 > 100 µM | SK-MEL-28 > 100 µM | ACHN > 100 µM | Malme-3M > 100 µM | UACC-257 > 100 µM | K562 > 100 µM | EKVX > 100 µM | PC-3 > 100 µM | A498 > 100 µM | HOP-62 > 100 µM | HCT-116 > 100 µM | OVCAR-8 > 100 µM

O=C(NCCCN1CCN(CCCNC(=O)Nc2cccc3ccccc23)CC1)Nc1cccc2ccccc12
inactive: RXF 393 11.1 µM | UO-31 16.6 µM | OVCAR-3 13.6 µM | RPMI-8226 17.3 µM | BT-549 13.2 µM | MDA-MB-435 16.2 µM | SK-MEL-2 18.7 µM | MDA-MB-231 2.25 µM | U-251 5.46 µM | SK-MEL-28 14.4 µM | ACHN 16.3 µM | Malme-3M 3.15 µM | UACC-257 13.2 µM | K562 19.9 µM | EKVX 9.82 µM | PC-3 9.93 µM | A498 15.3 µM | HOP-62 11.7 µM | HCT-116 14.4 µM | OVCAR-8 18.7 µM

COc1cc(C2c3cc4c(cc3OC(N3CCOCC3)C2C)OCO4)cc(OC)c1OC(C)=O (centres undefined)
inactive: RXF 393 11.6 µM | UO-31 28.4 µM | OVCAR-3 8.07 µM | RPMI-8226 26.3 µM | BT-549 7.89 µM | MDA-MB-435 2.46 µM | SK-MEL-2 12.9 µM | MDA-MB-231 18 µM | U-251 14.3 µM | SK-MEL-28 > 42.1 µM | ACHN 26.6 µM | Malme-3M 5.9 µM | UACC-257 53.8 µM | K562 3.81 µM | EKVX 47.5 µM | PC-3 13.5 µM | A498 27.8 µM | HOP-62 12.4 µM | HCT-116 7.52 µM | OVCAR-8 26 µM

O=c1oc2cc(/N=C/c3ccccc3Cl)ccc2c2ccccc12
inactive: RXF 393 > 100 µM | UO-31 40.1 µM | OVCAR-3 > 100 µM | RPMI-8226 > 100 µM | BT-549 > 100 µM | MDA-MB-435 > 100 µM | SK-MEL-2 > 100 µM | MDA-MB-231 > 100 µM | U-251 > 100 µM | SK-MEL-28 > 100 µM | ACHN > 100 µM | Malme-3M > 100 µM | UACC-257 > 100 µM | K562 45.9 µM | EKVX 49.2 µM | PC-3 98.6 µM | A498 > 100 µM | HOP-62 > 100 µM | HCT-116 71.3 µM | OVCAR-8 > 100 µM

Cc1c([N+](=O)[O-])ccc2c(NCCCN(C)C)ccnc12
inactive: RXF 393 23.9 µM | UO-31 13.7 µM | OVCAR-3 21 µM | RPMI-8226 67.6 µM | BT-549 17.9 µM | MDA-MB-435 17.5 µM | SK-MEL-2 17.1 µM | MDA-MB-231 23 µM | U-251 27.4 µM | SK-MEL-28 25.5 µM | ACHN 30.8 µM | Malme-3M 17.2 µM | UACC-257 17.2 µM | K562 48.6 µM | PC-3 16.4 µM | A498 34 µM | HOP-62 31.1 µM | HCT-116 15.2 µM | OVCAR-8 25.2 µM
